Entries after “also recorded” stand apart in the source; their conditions may differ.
Columns and labels:
Type in all cases: physicochemical
Bulk stability (1 week) = assay: Bulk stability (1 week); set-up: key to CL (color): A: No change of color; B: Slight discoloration; C: Medium discoloration; D: Strong discoloration; DC: complete decomposition; conditions: for CL (color) / Bulk (HPLC) chiral purity / Bulk (HPLC) purity / Bulk (XRPD): Solid state
Experimental: Bulk stability of I-1 Form A and the 2 salt candidates was investigated at 25° C./92% RH in an open container, at 40° C./75% RH in an open container and at 60° C. in a tight container over 1 week. […] All the 3 salts show no obvious racemization based on chiral purity results.
I-1 Form A and the 2 salts were placed at 25° C./92% RH in an open container, at 40° C./75% RH in an open container and at 60° C. in a closed container for I week. Samples after I week were characterized by XRPD and HPLC and inspected for color change.

[1] = Solution stability at 25° C.
Experimental: Solution stability of I-1 Form A and I-3 Form A was investigated in methanol and THF/ACN (2:1, v/v) at 25° C. Target concentration is 4 mg/mL.
Accurate 4 mg of I-1 Form A, 5.13 mg of I-3 Form A was weighed into a 8 mL glass vial, respectively. The salt amount used is equivalent to 4 mg anhydrous free form.

Hygroscopicity by DVS = conditions: for 1st Desorp. (%) / 1st Sorp. (%) / 2nd Desorp. (%) / 2nd Sorp. (%): DVS 25° C.
Experimental: • Method 1 (for I-1 Form A and I-3 Form A) • Instrument Intrinsic, Advantage or Adventure • Total gas flow 200 sccm • Oven temperature 25° C. • Solvent Water • Method Cycle: 40-0-95-0-40% RH • Stage Step: 10% • Equilibrium: 0.002 dm/dt (%/min) • Minimum dm/dt stability duration: 60 min • Maximum dm/dt stage time: 360 min • Method 2 (for I-4 Form A) • Instrument Intrinsic, Advantage or Adventure • Total gas flow 200 sccm • Oven temperature 25° C. • Solvent Water • Method Cycle: 40-95-0-95-40% RH • Stage Step: 10% • Equilibrium: 0.002 dm/dt (%/min) • Minimum dm/dt stability duration: 60 min • Maximum dm/dt stage time: 360 min
I-1 Form A is hygroscopic. It absorbs about 5.5% water by weight from 40% RH to 95% RH. […] It absorbs about 40% water by weight from 40% RH to 95% RH. Form changed after the DVS test. […] It starts to absorb water when RH>40% and potential hydrate form generates at high humidity based on DVS data. The sorption and desorption are reversible.
Water sorption and desorption behavior of I-1 Form A, I-3 Form A, and I-4 Form A was investigated by DVS at 25° C. with a cycle of 40-0-95-0-40% RH, dm/dt 0.002, min. equilibration time 60 min and max. equilibration time 360 min. XRPD was measured after the DVS test to determine form change.

[2] = Salt candidates risk matrix (summary)
[3] = 25° C./92% RH, open container, 1 week, listed as I-3 Form A
[4] = 40° C./75% RH, open container, 1 week, listed as I-3 Form A
[5] = 60° C., tight container, 1 week
[6] = 60° C., tight container, 1 week, listed as I-3 Form A
[7] = before storage, listed as I-3 Form A
[8] = 25° C., MeOH, 0 h, listed as I-3 Form A
[9] = 25° C., MeOH, 6 h, listed as I-3 Form A
[10] = 25° C., MeOH, 24 h, listed as I-3 Form A
[11] = 25° C., THF/ACN(2:1, v/v), 0 h, listed as I-3 Form A
[12] = 25° C., THF/ACN(2:1, v/v), 6 h, listed as I-3 Form A
[13] = 25° C., THF/ACN(2:1, v/v), 24 h, listed as I-3 Form A

## N#Cc1c(-c2cc(NC(=O)c3cc(F)cc(C(F)(F)F)c3)c3c(c2)C(=O)N[C@H]3c2cc(F)ccc2Cl)ccc2ncnn12 [Compound I-3]
Bulk stability (1 week); 25° C./92% RH open, 40° C./75% RH open, 60° C. tight container, 1 week, listed as I-3 Form A
  bulk stability (chemical and physical): chemically and physically stable; also recorded: chemically stable and shows no XRPD change; also recorded: good chemical and physical bulk stability
Bulk stability (1 week); [2]
  Chemical stability: Stable
  Physical stability: Stable
Bulk stability (1 week); 25° C./92% RH, open container, 1 week
  CL (color): A
Bulk stability (1 week); [3]
  Bulk (HPLC) chiral purity: 98.3%
  Bulk (HPLC) purity: 99.4%/
  Bulk (XRPD): No form change*
Bulk stability (1 week); 40° C./75% RH, open container, 1 week
  CL (color): A
Bulk stability (1 week); [4]
  Bulk (HPLC) chiral purity: 98.5%
  Bulk (HPLC) purity: 99.3%/
  Bulk (XRPD): No form change*
Bulk stability (1 week); [5]
  Bulk (XRPD): No form change
  CL (color): A
Bulk stability (1 week); [6]
  Bulk (HPLC) chiral purity: 98.3%
  Bulk (HPLC) purity: 99.5%/
Bulk stability (1 week); [7]
  Chiral purity (initial): 98.6%
  Initial purity by HPLC: 99.5%
[1]; [8]
  Chemical purity: 99.3%
  Chiral purity: 98.3%
[1]; [9]
  Chemical purity: 99.3%
  Chiral purity: 98.3%
[1]; [10]
  Chemical purity: 99.4%
  Chiral purity: 98.3%
[1]; [11]
  Chemical purity: 99.2%
  Chiral purity: 98.3%
[1]; [12]
  Chemical purity: 99.3%
  Chiral purity: 98.3%
[1]; [13]
  Chemical purity: 99.4%
  Chiral purity: 98.3%
[1]; before dissolution, listed as I-3 Form A
  Initial chiral purity: Initial chiral purity: 98.6%
[1]; methanol and THF/ACN (2:1, v/v), 25° C., 4 mg/mL
  racemization in solution: no racemization
[1]; methanol and THF/ACN (2:1, v/v), 25° C., at least 24 h, 4 mg/mL, listed as I-3 Form A
  chemical stability in solution: chemically stable; also recorded: good solution stability
Hygroscopicity by DVS; 0% RH, listed as I-3 Form A
  1st Desorp. (%): 0.05%
  1st Sorp. (%): 0.05%
  2nd Desorp. (%): 0.00%
  2nd Sorp. (%): 0.00%
Hygroscopicity by DVS; 10% RH
  2nd Desorp. (%): 0.11%
Hygroscopicity by DVS; 10% RH, listed as I-3 Form A
  1st Desorp. (%): 0.16%
  1st Sorp. (%): 0.15%
  2nd Sorp. (%): 0.10%
Hygroscopicity by DVS; 20% RH, listed as I-3 Form A
  1st Desorp. (%): 0.27%
  1st Sorp. (%): 0.26%
  2nd Desorp. (%): 0.22%
  2nd Sorp. (%): 0.21%
Hygroscopicity by DVS; 30% RH, listed as I-3 Form A
  1st Desorp. (%): 0.40%
  1st Sorp. (%): 0.38%
  2nd Desorp. (%): 0.37%
  2nd Sorp. (%): 0.35%
Hygroscopicity by DVS; 40% RH, listed as I-3 Form A
  1st Desorp. (%): 0.69%
  1st Sorp. (%): 0.67%
  2nd Desorp. (%): 2.11%
  2nd Sorp. (%): 0.81%
Hygroscopicity by DVS; 50% RH, listed as I-3 Form A
  1st Sorp. (%): 2.34%
  2nd Desorp. (%): 2.44%
Hygroscopicity by DVS; 60% RH, listed as I-3 Form A
  1st Sorp. (%): 2.53%
  2nd Desorp. (%): 2.64%
Hygroscopicity by DVS; 70% RH, listed as I-3 Form A
  1st Sorp. (%): 2.84%
  2nd Desorp. (%): 4.17%
Hygroscopicity by DVS; 80% RH, listed as I-3 Form A
  1st Sorp. (%): 4.29%
  2nd Desorp. (%): 4.45%
Hygroscopicity by DVS; 90% RH, listed as I-3 Form A
  1st Sorp. (%): 4.64%
  2nd Desorp. (%): 4.76%
Hygroscopicity by DVS; 95% RH, listed as I-3 Form A
  1st Sorp. (%): 5.36%
  2nd Desorp. (%): 5.36%
Hygroscopicity by DVS; listed as I-3 Form A
  form after the DVS test (XRPD): still I-3 Form A

From patent US20260125374A1, “PI3K-ALPHA INHIBITORS AND METHODS OF MAKING AND USING THE SAME” (Relay Therapeutics, Inc., priority 2021, published 2026)
